This passage reports IC50 results from patent US20250154138A1, “Small Molecule IL-17A Modulators” (BeiGene, Ltd., priority 2022, published 2025).

For test [1], the target named is human IL-17A / human IL-17RA (Homo sapiens (Human), UniProt Q16552). The test can be described thus: Human IL-17A biochemical assay (HTRF, blocking of IL-17A binding to IL-17RA). The note with it: 0.4 nM IL-17A, 0.3 nM IL-17RA, max compound concentration 10 uM. The gist of the method: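 In this time-resolved fluorescence format, the cytokine (0.4 nM) is exposed to compound for 3 h before 0.3 nM receptor is added for 1 h, with all incubations at room temperature in HEPES buffer, pH 7.5. The 620/665 nm signal ratio gives percent inhibition, and IC50 is taken from a 4-parameter curve.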
A general note: Time-resolved FRET reads energy transfer from a long-lived donor to a nearby acceptor.

For test [2], the system named is IL-17-induced GROα secretion from HT-29 cells. Description: GROα release assay in human colorectal adenocarcinoma epithelial cell (HT-29, ELISA). The test is classed as cell-based. The note with it: Homo sapiens, HT-29, 48 h, 10 ng/mL IL-17A, highest concentration 10 μM, read-out: Cellular assay HT29 cell/CXCL1 IC50. In a few lines:
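IC50 values come from four-parameter fits of GROα levels, quantified by ELISA (450 nm, standard curve) in supernatants. Compounds, 4-fold serially diluted from 10 μM, were mixed 15 min with IL-17A (10 ng/mL final) before 48 h incubation with HT-29 cells at 37°C.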
(An ELISA detects its analyte on a solid surface through an enzyme-linked reagent.)

human IL-17A / human IL-17RA, sequence (Q16552 24-155): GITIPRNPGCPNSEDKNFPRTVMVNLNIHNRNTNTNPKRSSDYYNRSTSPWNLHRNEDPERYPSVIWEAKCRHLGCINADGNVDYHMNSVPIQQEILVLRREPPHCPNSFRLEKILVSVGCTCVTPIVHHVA

Take `CNC(=O)C1(N2C[C@@H](C(C)C)NC2=O)Cc2ccc(NC(=O)C(NC(=O)c3ccnn3C)C3CCCC(C)C3)cc2C1` (stereo partly drawn) [Example 104, N-(2-((2-((R)-4-isopropyl-2-oxoimidazolidin-1-yl)-2-(methylcarbamoyl)-2,3-dihydro-1H-inden-5-yl)amino)-1-(3-methylcyclohexyl)-2-oxoethyl)-1-methyl-1H-pyrazole-5-carboxamide]: the values for the IC50 in test [1] and in test [2] were 12 nM and 23.6 nM, respectively.
Turning to `CNC(=O)C1(N2C[C@@H](C3CC3)NC2=O)Cc2ccc(NC(=O)[C@@H](NC(=O)c3ccnn3C)C3CCCCC3)cc2C1` (stereo partly drawn) [Example 41, N-((1S)-1-cyclohexyl-2-((2-((R)-4-cyclopropyl-2-oxoimidazolidin-1-yl)-2-(methylcarbamoyl)-2,3-dihydro-1H-inden-5-yl)amino)-2-oxoethyl)-1-methyl-1H-pyrazole-5-carboxamide], the IC50 in test [1] was determined as 100 nM; in test [2] it was 495 nM.
In the case of `Cc1nonc1C(=O)N[C@H](C(=O)Nc1ccc2c(c1)CC(C1CCCC1)(N1CC3(CC3)CNC1=O)C2)C(C1CC1)C1CC1` (stereo partly drawn) [Example 230, N-((2S)-1-((2-cyclopentyl-2-(6-oxo-5,7-diazaspiro[2.5]octan-5-yl)-2,3-dihydro-1H-inden-5-yl)amino)-3,3-dicyclopropyl-1-oxopropan-2-yl)-4-methyl-1,2,5-oxadiazole-3-carboxamide], the IC50 in test [1] is 4460 nM; in test [2] it was 9470 nM.
The corresponding values for `Cn1nccc1C(=O)N[C@H](C(=O)Nc1ccc2c(c1)CC(N1C[C@@H](C(F)(F)F)NC1=O)C2)C(C1CC1)C1CC1` (stereo partly drawn) [Example 197, N-((2S)-1,1-dicyclopropyl-3-oxo-3-((2-((S)-2-oxo-4-(trifluoromethyl)imidazolidin-1-yl)-2,3-dihydro-1H-inden-5-yl)amino)propan-2-yl)-1-methyl-1H-pyrazole-5-carboxamide] are 80.6 nM and 397 nM.
Consider `CNC(=O)C1(N2CC(C(F)(F)F)NC2=O)Cc2ccc(NC(=O)[C@@H](NC(=O)c3ccnn3C)C3CCCCC3)cc2C1` (stereo partly drawn) [Example 202, N-((1S)-1-cyclohexyl-2-((2-(methylcarbamoyl)-2-(2-oxo-4-(trifluoromethyl)imidazolidin-1-yl)-2,3-dihydro-1H-inden-5-yl)amino)-2-oxoethyl)-1-methyl-1H-pyrazole-5-carboxamide], for which the figures for the IC50 in test [1] and in test [2] were 346 nM and 519 nM, respectively.
With `CNC(=O)C1(N2CC3(CC3)CNC2=O)Cc2ccc(NC(=O)C(NC(=O)c3ccnn3C)C3CCC(CC(F)(F)F)CC3)cc2C1` (centres unmarked) [Example 168, 1-methyl-N-(2-((2-(methylcarbamoyl)-2-(6-oxo-5,7-diazaspiro[2.5]octan-5-yl)-2,3-dihydro-1H-inden-5-yl)amino)-2-oxo-1-(4-(2,2,2-trifluoroethyl)cyclohexyl)ethyl)-1H-pyrazole-5-carboxamide], the IC50 was 32.8 nM in test [1] and 60.5 nM in test [2].
`Cc1nonc1C(=O)N[C@H](C(=O)Nc1ccc2c(c1)CC(C(=O)Nc1ccccc1C#N)(N1C[C@@H](C(C)C)NC1=O)C2)C(C1CC1)C1CC1` (stereo partly drawn) [Example 283, N-((2S)-1-((2-((2-cyanophenyl)carbamoyl)-2-((R)-4-isopropyl-2-oxoimidazolidin-1-yl)-2,3-dihydro-1H-inden-5-yl)amino)-3,3-dicyclopropyl-1-oxopropan-2-yl)-4-methyl-1,2,5-oxadiazole-3-carboxamide]: the IC50 came out at 32.5 nM in test [1] and 34.6 nM in test [2].
For `Cc1nonc1C(=O)N[C@H](C(=O)Nc1ccc2c(c1)CC(Cc1ccc(F)cc1)(N1C[C@@H](C(C)C)NC1=O)C2)C(C1CC1)C1CC1` (stereo partly drawn) [Example 241, N-((2S)-1,1-dicyclopropyl-3-((2-(4-fluorobenzyl)-2-((R)-4-isopropyl-2-oxoimidazolidin-1-yl)-2,3-dihydro-1H-inden-5-yl)amino)-3-oxopropan-2-yl)-4-methyl-1,2,5-oxadiazole-3-carboxamide], in that order: 2920 nM and 5800 nM.
For `Cc1conc1C(=O)N[C@H](C(=O)Nc1ccc2c(c1)CC(N1C[C@@H](C(F)(F)F)NC1=O)C2)C(C1CC1)C1CC1` (stereo partly drawn) [Example 239, N-((2S)-1,1-dicyclopropyl-3-oxo-3-((2-((S)-2-oxo-4-(trifluoromethyl)imidazolidin-1-yl)-2,3-dihydro-1H-inden-5-yl)amino)propan-2-yl)-4-methylisoxazole-3-carboxamide], in that order: 977 nM and 3210 nM.
Take `CNC(=O)C1(N2C[C@@H](C(C)C)NC2=O)Cc2ccc(NC(=O)C(NC(=O)c3ccnn3C)C3CCc4ccc(Cl)cc4C3)cc2C1` (stereo partly drawn) [Example 196, N-(1-(7-chloro-1,2,3,4-tetrahydronaphthalen-2-yl)-2-((2-((R)-4-isopropyl-2-oxoimidazolidin-1-yl)-2-(methylcarbamoyl)-2,3-dihydro-1H-inden-5-yl)amino)-2-oxoethyl)-1-methyl-1H-pyrazole-5-carboxamide]: the values for the IC50 in test [1] and in test [2] were 19.8 nM and 58.5 nM, respectively.
For `CNC(=O)C1(N2C[C@@H](C(C)C)NC2=O)Cc2ccc(NC(=O)[C@@H](NC(=O)c3ccccc3)C3CCCCC3)cc2C1` (stereo partly drawn) [Example 54, 5-((S)-2-benzamido-2-cyclohexylacetamido)-2-((R)-4-isopropyl-2-oxoimidazolidin-1-yl)-N-methyl-2,3-dihydro-1H-indene-2-carboxamide], in that order: 24 nM and 137 nM.
For `CC(C)[C@@H]1CN(C2(C(=O)NC(CO)C3CCC3)Cc3ccc(NC(=O)[C@@H](NC(=O)c4ccnn4C)C4CCCCC4)cc3C2)C(=O)N1` (stereo partly drawn) [Example 86, N-((1S)-2-((2-((1-cyclobutyl-2-hydroxyethyl)carbamoyl)-2-((R)-4-isopropyl-2-oxoimidazolidin-1-yl)-2,3-dihydro-1H-inden-5-yl)amino)-1-cyclohexyl-2-oxoethyl)-1-methyl-1H-pyrazole-5-carboxamide], in that order: 22 nM and 23.5 nM.
The corresponding values for `CC(C)n1nccc1C(=O)N[C@H](C(=O)Nc1ccc2c(c1)CC(c1nc3cccc(C(F)(F)F)c3[nH]1)(N1CC3(CC3)CNC1=O)C2)C(C1CC1)C1CC1` (stereo partly drawn) [Example 198, N-((2S)-1,1-dicyclopropyl-3-oxo-3-((2-(6-oxo-5,7-diazaspiro[2.5]octan-5-yl)-2-(7-(trifluoromethyl)-1H-benzo[d]imidazol-2-yl)-2,3-dihydro-1H-inden-5-yl)amino)propan-2-yl)-1-isopropyl-1H-pyrazole-5-carboxamide] are 1130 nM and 316 nM.
`CC(C)[C@@H]1CN(C2(C(=O)N[C@@H](CO)C3CCCCC3)Cc3ccc(NC(=O)[C@@H](NC(=O)c4ccnn4C)C4CCCCC4)cc3C2)C(=O)N1` (stereo partly drawn) [Example 122, N-((1S)-1-cyclohexyl-2-((2-(((R)-1-cyclohexyl-2-hydroxyethyl)carbamoyl)-2-((R)-4-isopropyl-2-oxoimidazolidin-1-yl)-2,3-dihydro-1H-inden-5-yl)amino)-2-oxoethyl)-1-methyl-1H-pyrazole-5-carboxamide]: the results for the IC50 in test [1] and in test [2] were 10 nM and 13 nM, respectively.
For `Cn1nccc1C(=O)N[C@H](C(=O)Nc1ccc2c(c1)CC(C(=O)NCc1ccccc1F)(N1CC3(CC3)CNC1=O)C2)C1CCCCC1` (stereo partly drawn) [Example 175, N-((1S)-1-cyclohexyl-2-((2-((2-fluorobenzyl)carbamoyl)-2-(6-oxo-5,7-diazaspiro[2.5]octan-5-yl)-2,3-dihydro-1H-inden-5-yl)amino)-2-oxoethyl)-1-methyl-1H-pyrazole-5-carboxamide], in that order: 22.4 nM and 10.1 nM.
For `CNC(=O)C1(N2C[C@@H](C(C)C)NC2=O)Cc2ccc(NC(=O)[C@@H](NC(=O)c3nonc3C)C(C3CC3)C3CC3)cc2C1` (stereo partly drawn) [Example 248, N-((2S)-1,1-dicyclopropyl-3-((2-((R)-4-isopropyl-2-oxoimidazolidin-1-yl)-2-(methylcarbamoyl)-2,3-dihydro-1H-inden-5-yl)amino)-3-oxopropan-2-yl)-4-methyl-1,2,5-oxadiazole-3-carboxamide], in that order: 126 nM and 427 nM.
For `Cc1ccc(NC(=O)C2(N3CC4(CC4)CNC3=O)Cc3ccc(NC(=O)[C@@H](NC(=O)c4nonc4C)C4CCC(F)(F)CC4)cc3C2)cc1` (stereo partly drawn) [Example 221, N-((1S)-1-(4,4-difluorocyclohexyl)-2-oxo-2-((2-(6-oxo-5,7-diazaspiro[2.5]octan-5-yl)-2-(p-tolylcarbamoyl)-2,3-dihydro-1H-inden-5-yl)amino)ethyl)-4-methyl-1,2,5-oxadiazole-3-carboxamide], in that order: 47.8 nM and 111 nM.
On to `CNC(=O)C1(N2C[C@@H](C(C)C)NC2=O)Cc2ccc(NC(=O)[C@@H](NC(=O)c3ccnn3C)C3CCC(F)(F)CC3)cc2C1` (stereo partly drawn) [Example 67, N-((1S)-1-(4,4-difluorocyclohexyl)-2-((2-((R)-4-isopropyl-2-oxoimidazolidin-1-yl)-2-(methylcarbamoyl)-2,3-dihydro-1H-inden-5-yl)amino)-2-oxoethyl)-1-methyl-1H-pyrazole-5-carboxamide], for which the figures for the IC50 in test [1] and in test [2] were 70 nM and 365 nM, respectively.
Consider `CNC(=O)C1(N2CC(C(C)COC)NC2=O)Cc2ccc(NC(=O)[C@@H](NC(=O)c3ccnn3C)C3CCCCC3)cc2C1` (stereo partly drawn) [Example 35, N-((1S)-1-cyclohexyl-2-((2-(4-(1-methoxypropan-2-yl)-2-oxoimidazolidin-1-yl)-2-(methylcarbamoyl)-2,3-dihydro-1H-inden-5-yl)amino)-2-oxoethyl)-1-methyl-1H-pyrazole-5-carboxamide], for which the IC50 in test [1] was found to be 293 nM; in test [2] it was 2020 nM.
